Experimental data taken from patent US20250034182A1, “PHOSPHOLIPID COMPOUNDS AND METHODS OF MAKING AND USING THE SAME” (priority 2021, published 2025).
Like-named read-outs stand apart in the source and are kept apart here.

Assays:
[1] = system: Respiratory syncytial virus recombinant with luciferase (RSV-Luc5) in HEp-2 cells; assay: HEp-2 RSV-Luc5 384-well assay (EC50 RSVFLUC Hep2-384, Example R); assay type: cell-based; conditions: human respiratory syncytial virus, HEp-2, 72 h, read-out: RSV Hep-2 FLuc EC50 (nM) (per Ex. R)
Source text: HEp-2 cell line was purchased from ATCC (Manassas, VA Cat #CCL-23) and maintained in Dulbecco's […] (DMEM) (Corning, New York, NY, Cat #15-018CM) supplemented with 10% fetal bovine serum (FBS) (Hyclone, Logan, UT, Cat #SH30071-03) and 1× Penicillin-Streptornycin-L-Glutamine (Corning, New York, NY, Cat #30-009-CI). Cells were passaged 2 times per week to maintain sub-confluent densities and were used for experiments at passage 5-20. Respiratory syncytial virus recombinant with luciferase (RSV-Luc5) direct pelleted virus (≥1×107 TCID50/ml) was purchased from Microbiologics (Saint Cloud, MN). Viral replication was determined in HEp-2 cells in the following manner.
Compounds are prepared in 384-well polypropylene plates (Greiner, Monroe, NC, Cat #784201) with 8 compounds per plate in grouped replicates of 4 at 10 serially diluted concentrations (1:3).
HEp-2 cells were suspended in DMEM (supplemented with 10% FBS and 1×Penicillin-Streptonycin-L-Glutimine) and 60 μL of 4,000 cells per well were seeded into 384-well plates (Greiner, Monroe, NC, Cat #781080) using Biotek MultiFlo dispenser. After overnight incubation at 37° C. and 5% CO2, 0.4 uL of three-fold serial dilutions of compound was added to each well using a Biomek FX pipette station. RSV-Luc5 viruses were diluted in DMEM (supplemented with 10% FBS and 1× Penicillin-Streptonycin-L-Glutainie) at an MOI=0.5. Virus suspension was added to each 384-well compound plate at 20 uL per well using a Biotek MultiFlo dispenser. The assay plates were incubated for 3 days at 37° C. and 5% CO2. At the end of incubation, One-Glo reagent (Promega, Madison, WI, Cat #E6120) was prepared. The assay plate and the reagent were equilibrated to room temperature for 30 minutes. 50 uL per well of medium was removed from assay plate and 40 uL per well of One-Glo reagent was added to each plate by Biomek FX. The plates were sat at room temp for 15 minutes. Viral replication was then assessed by measuring luminescence signal using and Envision plate reader. Remdesivir was used as positive control and DMSO was used as negative control. Values were normalized to the positive and negative controls (as 0% and 100% replication, respectively) and data was fitted using non-linear regression analysis by Gilead's dose response tool. The EC50 value for each compound was then determined as the concentration reducing the viral replication by 50%.

HCV Replicon 1B = HCV Replicon 1B EC50 (Example Q); assay type: cell-based; conditions: Hepatitis C virus, 72 h, read-out: HCV Replicon 1B EC50 (nM) (per Ex. Q)
Experimental: Compounds were serially diluted in ten steps of 1:3 dilutions in 384-well plates. All serial dilutions were performed in four replicates per compound within the same 384-well plate. An HCV protease inhibitor ITMN-191 at […] was added as a control of 100% inhibition of HCV replication while puromycin at 10 mM was included as a control of 100% cytotoxicity. To each well of a black polystyrene 384-well plate (Greiner Bio-one, Monroe, NC), 90 μL of cell culture medium (without Geneticin) containing 2000 suspended HCV replicon cells was added with a Biotek μFlow workstation. For compound transfer into cell culture plates, 0.4 μL of compound solution from the compound serial dilution plate was transferred to the cell culture plate on a Biomek FX workstation. The DMSO concentration in the final assay wells was 0.44%. The plates were incubated for 3 days at 37° C. with 5% CO2 and 85% humidity. The HCV replicon assay was a multiplex assay, able to assess both cytotoxicity and antireplicon activity from the same well. The CC50 assay was performed first. The media in the 384-well cell culture plate was aspirated, and the wells were washed four times with 100 μL of PBS each, using a Biotek ELX405 plate washer. A volume of 50 μL of a solution containing 400 nM calcein AM (Anaspec, Fremont, CA) in 1×PBS was added to each well of the plate with a Biotek μFlow workstation. The plate was incubated for 30 min at room temperature before the fluorescence signal (excitation 490 nm, emission 520 nm) was measured with a Perkin-Elmer Envision plate reader. The EC50 assay was performed in the same wells as the CC50 assay. The calcein-PBS solution in the 384-well cell culture plate was aspirated with a Biotek ELX405 plate washer. A volume of 20 μL of Dual-Glo luciferase buffer (Promega, Madison, WI) was added to each well of the plate with a Biotek μFlow Workstation. The plate was incubated for 10 min at room temperature. A volume of 20 μL of a solution containing a 1:100 mixture of Dual-Glo Stop & Glo substrate (Promega, Madison, WI) and Dual-Glo Stop & Glo buffer (Promega, Madison, WI) was added to each well of the plate with a Biotek μFlow Workstation. The plate was then incubated at room temperature for 10 min before the luminescence signal was measured with a Perkin-Elmer Envision Plate Reader.

[2] = HCV replicon cells, 3 days, Dual-Glo luciferase

SMILES	EC50 [1]	EC50 (HCV Replicon 1B; [2])	EC50 (HCV Replicon 1B)
CCCCCCCCCCCCCCCCCCOC[C@H](COP(=O)(O)OC[C@@]1(C#N)O[C@@H](c2ccc3c(N)ncnn23)[C@H](O)[C@@H]1O)OCc1cc(F)cc(C#N)c1 [Compound 1, ((2R,3S,4R,5S)-5-(4-aminopyrrolo[2,1-f][1,2,4]triazin-7-yl)-2-cyano-3,4-dihydroxytetrahydrofuran-2-yl)methyl ((R)-2-((3-cyano-5-fluorobenzyl)oxy)-3-(octadecyloxy)propyl) hydrogen phosphate]	100 nM	13800 nM	
CCCCCCCCCCCCCCCCCCOC[C@H](COP(=O)(O)OC[C@@]1(C#N)O[C@@H](c2ccc3c(N)ncnn23)[C@H](O)[C@@H]1O)OCc1ccc(C#N)cc1OC [Compound 73, ((2R,3S,4R)-5-(4-aminopyrrolo[2,1-f][1,2,4]triazin-7-yl)-2-cyano-3,4-dihydroxytetrahydrofuran-2-yl)methyl ((R)-2-((4-cyano-2-methoxybenzyl)oxy)-3-(octadecyloxy)propyl) hydrogen phosphate]	195 nM	15900 nM	
CCCCCCCCCCCCCCCCC[C@H](COP(=O)(O)OC[C@@]1(C#N)O[C@@H](c2ccc3c(N)ncnn23)[C@H](O)[C@@H]1O)OCc1cc(F)cc(C#N)c1 [Compound 36, ((2R,3S,4R,5S)-5-(4-aminopyrrolo[2,1-f][1,2,4]triazin-7-yl)-2-cyano-3,4-dihydroxytetrahydrofuran-2-yl)methyl ((R)-2-((3-cyano-5-fluorobenzyl)oxy)nonadecyl) hydrogen phosphate]	155 nM		26300 nM
CCCCCCCCCCCCCCCCCCOC[C@H](COP(=O)(O)OC[C@@]1(C#N)O[C@@H](c2ccc3c(N)ncnn23)[C@H](O)[C@@H]1O)Oc1cccc(C#N)n1 [Compound 21, ((2R,3S,4R,5S)-5-(4-aminopyrrolo[2,1-f][1,2,4]triazin-7-yl)-2-cyano-3,4-dihydroxytetrahydrofuran-2-yl)methyl ((R)-2-((6-cyanopyridin-2-yl)oxy)-3-(octadecyloxy)propyl) hydrogen phosphate]	136 nM	13300 nM	
CCCCCCCCCCCCCCCCCCCC[C@H](COP(=O)(O)OC[C@@]1(C#N)O[C@@H](c2ccc3c(N)ncnn23)[C@H](O)[C@@H]1O)Oc1cccc(C#N)c1 [Compound 51, ((2R,3S,4R,5S)-5-(4-aminopyrrolo[2,1-f][1,2,4]triazin-7-yl)-2-cyano-3,4-dihydroxytetrahydrofuran-2-yl)methyl ((R)-2-(3-cyanophenoxy)docosyl) hydrogen phosphate]	421 nM	14600 nM	
CCCCCCCCCCCCCCCCCCOC[C@H](COP(=O)(O)OC[C@@]1(C#N)O[C@@H](c2ccc3c(N)ncnn23)[C@H](O)[C@@H]1O)OCc1cccc(C#N)n1 [Compound 68, ((2R,3S,4R)-5-(4-aminopyrrolo[2,1-f][1,2,4]triazin-7-yl)-2-cyano-3,4-dihydroxytetrahydrofuran-2-yl)methyl ((R)-2-((6-cyanopyridin-2-yl)methoxy)-3-(octadecyloxy)propyl) hydrogen phosphate]	118 nM		11500 nM
CCCCCCCCCCCCCCCCCOC[C@H](COP(=O)(O)OC[C@@]1(C#N)O[C@@H](c2ccc3c(N)ncnn23)[C@H](O)[C@@H]1O)OCc1cc(F)cc(C#N)c1 [Compound 53, ((2R,3S,4R,5S)-5-(4-aminopyrrolo[2,1-f][1,2,4]triazin-7-yl)-2-cyano-3,4-dihydroxytetrahydrofuran-2-yl)methyl ((R)-2-((3-cyano-5-fluorobenzyl)oxy)-3-(heptadecyloxy)propyl) hydrogen phosphate]	113 nM	15500 nM	
